Experimental data taken from PubChem BioAssay AID651745 (NMMLSC, 2012).
One block for each compound: values may come before it. Activity calls are given as the source filed them.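 Rule for the calls: active = GFP positive cell share at least 15% at top dose plus 60%-effect dose below 60 µM; inactive = the rest.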

Assays:
[1] = differentiation induction in ER-HoxA9 progenitors – cell-based, lysozyme-GFP, flow cytometry, Cherry Pick01, dose response (AID 651745); conditions: ER-HoxA9 myeloid progenitors, lysozyme-GFP differentiation, flow cytometry
[2] = tested on: ER-HoxA9 myeloid progenitors, lysozyme-GFP differentiation, flow cytometry; assay: as above

Structure (SMILES): Cc1ccc(-c2nn3c(C)nnc3s2)cc1NC(=O)CSc1ccc(Cl)cc1
percent GFP positive (differentiation) ([1]; at 39.8 µM (top of the series)): 0.9% (inactive)

Structure (SMILES): O=CNc1ccc2c3c(cccc13)-c1ccccc1-2
percent GFP positive (differentiation) ([1]; at 13.2 µM (top of the series)): 1.9% (inactive)

EC50 [2]: 5.88 µM
Structure (SMILES): O=C(O)c1cccnc1Nc1ccc(Cl)cc1

EC50 [2]: 5.62 µM
Structure (SMILES): Cn1ccc2c(-c3ccc(C(C)(C)C)cc3)cc3c(c21)C1CCC3O1 (centres undefined)

Structure (SMILES): Cn1c(=O)c2cc(NC(=O)NCc3ccc(F)cc3)ccc2n1C/C=C/c1ccccc1
percent GFP positive (differentiation) ([1]; at 2.19 µM (top of the series)): 1.7% (inactive)

Structure (SMILES): O=[N+]([O-])c1ccc(C[n+]2cccc3c4ccccc4ccc32)cc1
percent GFP positive (differentiation) ([1]; at 39.8 µM (top of the series)): 3.1% (inactive)

Structure (SMILES): COc1ccc(/C=C/C(O)=C2/C(=O)N(C)C3(C)CC2c2ccccc2O3)cc1 (centres undefined)
percent GFP positive (differentiation) ([1]; at 13.2 µM (top of the series)): 5.7% (inactive)

Structure (SMILES): CCOC(=O)c1c(NC(=O)c2nn(CC)cc2Br)c(C#N)cn1-c1ccccc1
percent GFP positive (differentiation) ([1]; at 39.8 µM (top of the series)): 0.4% (inactive)

Structure (SMILES): Cn1cc(-c2cnc3c(NC=O)cc(-c4cccc(C(F)(F)F)c4)cn23)cn1
percent GFP positive (differentiation) ([1]; at 6.6 µM (top of the series)): 2.3% (inactive)

Structure (SMILES): CC(=O)c1c(NC(=O)c2ccccc2)[nH]c(-c2ccccc2)nc1=S
percent GFP positive (differentiation) ([1]; at 39.8 µM (top of the series)): 4% (inactive)

EC50 [2]: 4.47 µM
Structure (SMILES): Cc1ccc(Nc2nc(=O)c3cccnc3s2)c(Br)c1

Structure (SMILES): CCC(CO)n1c(SCc2cc(=O)oc3cc(C)ccc23)nc2ccccc2c1=O (centres undefined)
percent GFP positive (differentiation) ([1]; at 19.9 µM (top of the series)): 2.7% (inactive)

EC50 [2]: 5.32 µM
Structure (SMILES): O=C(CCNC(=O)c1ccc(Br)cc1)NC1CCCc2ccccc21 (centres undefined)

EC50 [2]: 21.3 µM
Structure (SMILES): CCC(C)Sc1ccc(-c2nc3cc(C)ccn3c2NC2CCCCC2)cc1 (centres undefined)

EC50 [2]: 6.88 µM
Structure (SMILES): COC(=O)c1cc2c(=O)c3ccccc3oc2nc1/C=C/N(C)C

Structure (SMILES): COc1ccc(C)cc1NC(=O)n1ncc2cc(Cl)ccc21
percent GFP positive (differentiation) ([1]; at 39.8 µM (top of the series)): 2.5% (inactive)

Structure (SMILES): COc1ccc(Cn2nnnc2CN2CCc3ccccc32)cc1
percent GFP positive (differentiation) ([1]; at 39.8 µM (top of the series)): 1.9% (inactive)

Structure (SMILES): Nc1ccc(C#Cc2ccc3c(=O)c4ccccc4oc3c2)cc1
percent GFP positive (differentiation) ([1]; at 13.2 µM (top of the series)): 15.2% (inactive)

Structure (SMILES): O=C(CCCN1C(=O)/C(=C/c2ccco2)SC1=S)Nc1cccc(C(=O)O)c1
percent GFP positive (differentiation) ([1]; at 19.9 µM (top of the series)): 7.4% (inactive)

Structure (SMILES): C[n+]1c(/C=C/c2ccc3c(c2)OCO3)ccc2ccccc21
percent GFP positive (differentiation) ([1]; at 13.2 µM (top of the series)): 3.3% (inactive)

EC50 [2]: 6.5 µM
Structure (SMILES): N#C/C(=C\N1CCN(Cc2ccc3c(c2)OCO3)CC1)c1nc2ccccc2s1

Structure (SMILES): Clc1ccc(Cn2ncc3c(N4CCN(c5ccccc5)CC4)ncnc32)cc1
percent GFP positive (differentiation) ([1]; at 4.37 µM (top of the series)): 1.8% (inactive)

Structure (SMILES): Cc1nn(-c2ccccc2)c(N2CCCC2)c1/C=N/NC(=S)Nc1ccccc1F
percent GFP positive (differentiation) ([1]; at 4.37 µM (top of the series)): 2.2% (inactive)

EC50 [2]: 6.05 µM
Structure (SMILES): O=C(O)c1ccccc1Nc1ccc([N+](=O)[O-])cc1

Structure (SMILES): CCCN1CCc2c(sc(NC(=O)c3ccc(S(=O)(=O)N(C)c4ccccc4)cc3)c2C(=O)NC)C1
percent GFP positive (differentiation) ([1]; at 13.2 µM (top of the series)): 89.5% (inactive)

Structure (SMILES): CCOC(=O)c1c(NC(=O)C(C)OC(=O)c2ccc(NC(=O)CC#N)cc2)sc2c1CCCC2 (centres undefined)
percent GFP positive (differentiation) ([1]; at 6.6 µM (top of the series)): 1.6% (inactive)

Structure (SMILES): Brc1ccc(-c2csc3[n+]2CCCCC3)cc1
percent GFP positive (differentiation) ([1]; at 6.6 µM (top of the series)): 9.9% (inactive)

Structure (SMILES): CNC(=O)c1c(NC(=O)c2ccc(S(=O)(=O)N3CCCc4ccccc43)cc2)sc2c1CCN(C)C2
percent GFP positive (differentiation) ([1]; at 13.2 µM (top of the series)): 4.8% (inactive)

Structure (SMILES): COc1ccccc1CN(Cc1nc2ccccc2c(=O)[nH]1)C(=O)Nc1ccc(C)cc1
percent GFP positive (differentiation) ([1]; at 39.8 µM (top of the series)): 1.4% (inactive)

Structure (SMILES): Cc1cccn2c(=O)c(/C=C3\SC(=S)NC3=O)c(NCCCN3CCOCC3)nc12
percent GFP positive (differentiation) ([1]; at 19.9 µM (top of the series)): 33% (inactive)

Structure (SMILES): O=c1[nH][nH]cc1C=Nc1ccccc1O
percent GFP positive (differentiation) ([1]; at 19.9 µM (top of the series)): 2.8% (inactive)

Structure (SMILES): CCC1(c2ccc(F)cc2)NC(=O)N(CC(=O)N2CCN(S(=O)(=O)c3ccc(C)cc3C)CC2)C1=O (centres undefined)
percent GFP positive (differentiation) ([1]; at 13.2 µM (top of the series)): 1.95% (inactive)

Structure (SMILES): C[n+]1ccccc1/C=C/c1ccc2ncccc2c1
percent GFP positive (differentiation) ([1]; at 39.8 µM (top of the series)): 4.4% (inactive)

Structure (SMILES): CCCc1nc2c3ccccc3ccn2c1Cc1ccc(OC)cc1C
percent GFP positive (differentiation) ([1]; at 13.2 µM (top of the series)): 2.2% (inactive)
